The values that follow come from ChEMBL document CHEMBL1201862, “PubChem BioAssay data set” (2004).

Holding throughout (assay): NCI anticancer screen, dose series, 48 h
Assay [1] has as its system SK-MEL-2.
Assay [2] has as its system HCC 2998.
Assay [3] deals with BT-549.
For assay [4], the system named is SF-295.
Assay [5] concerns KM12.
Assay [6] concerns MDA-N.
Assay [7] concerns CAKI-1.
The subject of assay [8] is HCT-116.
Assay [9] relates to HOP-92.
Assay [10] concerns SNB-19.
Assay [11] concerns SNB-75.
The test system of assay [12] is IGROV-1.
For assay [13], the system named is EKVX.
In assay [14] the test system is HL-60.
Assay [15] relates to UO-31.
The subject of assay [16] is SK-MEL-5.
Assay [17] deals with HOP-62.
In assay [18] the test system is OVCAR-8.
In assay [19] the test system is SK-OV-3.
Assay [20] relates to SK-MEL-28.

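Exposure lasted 48 hours, with cells grown in 96-well plates and compounds tested at five concentrations. Abbreviation: GI50, concentration required for 50% inhibition of growth.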 Active and inactive are the calls of the source. Cut-off read from the data, not from the text of the source: active = GI50 up to about 1.1 µM and inactive = higher. Some results are limits rather than exact numbers.

As to `Cc1n[nH]c(=O)c2cc(-c3ccccc3)[nH]c12`, the GI50 in assay [1] was 31 µM (inactive); in assay [2], 44.3 µM (inactive); in [3], 91.4 µM (inactive); in [4], 35.8 µM (inactive); in assay [5], 88.5 µM (inactive); in assay [6], 73.3 µM (inactive). Also, the GI50 in assay [7] is > 100 µM (inactive); in assay [8], 52.6 µM (inactive); in [9] it was > 100 µM (inactive); in [10], > 100 µM (inactive); in assay [11] it was 39.2 µM (inactive); in assay [12], 70.6 µM (inactive). Further, the GI50 in assay [13] was 36.6 µM (inactive); in assay [14], 54 µM (inactive); in assay [15], 49.3 µM (inactive); in assay [16], 41.6 µM (inactive); in [17], > 100 µM (inactive); in assay [18] it was 72.3 µM (inactive). Moreover, the GI50 in assay [19] was > 100 µM (inactive).
As for `Cc1nn(C(=O)c2ccc(Cl)cc2)c2c1C(c1ccc(O)cc1)SC(=N)N2` (stereo not given), the GI50 in assay [1], in [2], in [3], in assay [4], in assay [5] and in assay [6] was > 10 µM (inactive) throughout. Also, the GI50 in assay [7], in assay [20], in assay [8], in assay [9], in [10] and in assay [11] was > 10 µM (inactive) in each case. Moreover, the GI50 in assay [12], in assay [13], in [14], in assay [16], in assay [17] and in assay [18] was > 10 µM (inactive) in each case. The GI50 in assay [19] is > 10 µM (inactive).
For `COC1CCC(O)C(/C=C/[N+](=O)[O-])C1` (stereo not given), the GI50 is 10.2 µM (inactive) in [1]; 1.7 µM (inactive) in [2]; 2.58 µM (inactive) in assay [3]; 10.6 µM (inactive) in assay [4]; 4.14 µM (inactive) in assay [5]; 1.99 µM (inactive) in assay [6]. Also, the GI50 in [7] was 16.2 µM (inactive); in [20], 13.4 µM (inactive); in assay [8] it was 1.93 µM (inactive); in [9], 12.5 µM (inactive); in [10], 11.5 µM (inactive); in assay [11], 9.68 µM (inactive). Further, the GI50 in [12] was 1.66 µM (inactive); in assay [13], 4.56 µM (inactive); in [14] it was 1.8 µM (inactive); in assay [15], 1.81 µM (inactive); in [16], 4.06 µM (inactive); in [17] it was 5.41 µM (inactive). Further, the GI50 in assay [18] is 1.95 µM (inactive); in [19], 10.1 µM (inactive).
On to `c1c[nH]c(-c2ccc(-c3ccc[nH]3)c3nsnc23)c1`, for which the GI50 in assay [1] is 44.3 µM (inactive); in [2], 0.456 µM (active); in assay [3], 27 µM (inactive); in [4], > 58.1 µM (inactive); in assay [5], 0.217 µM (active); in [6], > 70.1 µM (inactive). For the same compound, the GI50 in assay [7] is > 66.7 µM (inactive); in [20] it was > 69.5 µM (inactive); in assay [8], > 45.9 µM (inactive); in [9], 31.8 µM (inactive); in assay [10], > 67.6 µM (inactive); in assay [11], 2.65 µM (inactive). Further, the GI50 in [12] is 20.3 µM (inactive); in assay [13] it was 0.0426 µM (active); in [14] it was 73.8 µM (inactive); in [15] it was > 48.1 µM (inactive); in assay [16] it was > 42.9 µM (inactive); in assay [17], 28.5 µM (inactive). Moreover, the results for the GI50 in assay [18] and in [19] were > 43.7 µM (inactive) and > 68.1 µM (inactive), respectively.
As for `C=C(Cl)/C(=C/Cl)CCC(Br)C(C)(C)Cl.C=C(Cl)/C(=C\Cl)CCC(Br)C(C)(C)Cl` (stereo not given), the GI50 in assay [1], in assay [2], in assay [3], in [4], in assay [5] and in assay [6] was > 10 µM (inactive) each time. Moreover, the GI50 in assay [7], in [20], in assay [8], in assay [9], in [10] and in assay [11] was > 10 µM (inactive) each time. In addition, the GI50 is > 10 µM (inactive) in assay [12]; > 10 µM (inactive) in assay [13]; 3.56 µM (inactive) in [14]; > 10 µM (inactive) in assay [15]; > 10 µM (inactive) in assay [16]; > 10 µM (inactive) in assay [17]. Moreover, the GI50 in assay [18] and in assay [19] was > 10 µM (inactive) in each case.
As to `COc1cc2c(cc1OC)C13CCN4CC5=CCOC6CC(=O)N2C1C6C5CC43O` (stereo not given), the GI50 in assay [1], in [2], in assay [3], in [4], in assay [5] and in assay [6] was > 100 µM (inactive) in each case. Also, the GI50 in [7], in assay [20], in [8], in assay [9], in [10] and in assay [11] was > 100 µM (inactive) throughout. Besides, the GI50 in assay [12], in assay [13], in [14], in assay [15], in assay [16] and in assay [18] was > 100 µM (inactive) in each case. Moreover, the GI50 in assay [19] is > 100 µM (inactive).
In the case of `Cc1ccsc1/C=N/Nc1cc(C)c2cccc(C)c2n1`, the GI50 in [1] is > 100 µM (inactive); in [2], > 100 µM (inactive); in [3] it was > 100 µM (inactive); in [4] it was 9.33 µM (inactive); in assay [5], > 100 µM (inactive); in [6], > 100 µM (inactive). Further, the GI50 was > 100 µM (inactive) in assay [7]; > 100 µM (inactive) in assay [20]; > 100 µM (inactive) in [9]; > 100 µM (inactive) in assay [10]; > 100 µM (inactive) in [11]; 1.6 µM (inactive) in assay [12]. The GI50 is > 100 µM (inactive) in assay [13]; 3.78 µM (inactive) in assay [14]; > 100 µM (inactive) in [17]; > 100 µM (inactive) in assay [18]; 84.5 µM (inactive) in [19].
With `CC(=O)OC[C@H]1On2nnnc2[C@H](OC(C)=O)[C@@H](OC(C)=O)[C@@H]1OC(C)=O`, the GI50 in [1], in [2], in assay [3], in assay [4], in assay [5] and in [6] was > 100 µM (inactive) each time. For the same compound, the GI50 in [7], in [20], in assay [8], in assay [9], in assay [11] and in assay [12] was > 100 µM (inactive) throughout. Besides, the GI50 in assay [13], in assay [14], in assay [15], in [16], in assay [17] and in [18] was > 100 µM (inactive) throughout. In addition, the GI50 in assay [19] is > 100 µM (inactive).
Regarding `CC(C)C1OC23CCCCC2C(C#N)(C#N)C1(C#N)C(=N)O3` (stereo not given), the GI50 in [1] is 26 µM (inactive); in assay [2], 13.4 µM (inactive); in assay [3], 18.8 µM (inactive); in [4], 49.9 µM (inactive); in assay [5], > 10 µM (inactive); in assay [6] it was 15.8 µM (inactive). Besides, the GI50 was 8.34 µM (inactive) in [7]; 27.4 µM (inactive) in assay [20]; 16 µM (inactive) in assay [8]; 16.5 µM (inactive) in assay [9]; 34.3 µM (inactive) in assay [10]; 28.4 µM (inactive) in assay [11]. Besides, the GI50 in assay [12] is > 10 µM (inactive); in [13], 27.5 µM (inactive); in assay [14] it was 5.31 µM (inactive); in [15], 32.7 µM (inactive); in assay [16] it was 16.8 µM (inactive); in assay [18] it was 20.2 µM (inactive). Moreover, the GI50 in [19] was > 100 µM (inactive).
On to `C=CC(Cl)(CBr)CCC(Br)C(C)(C)Cl` (stereo not given), for which the GI50 was 19.2 µM (inactive) in [1]; 14.8 µM (inactive) in [2]; 21.4 µM (inactive) in assay [3]; 14.8 µM (inactive) in assay [4]; 17.7 µM (inactive) in assay [6]; 17.3 µM (inactive) in [20]. The GI50 in [8] was 12.8 µM (inactive); in [9] it was 19.5 µM (inactive); in [10], 16.7 µM (inactive); in assay [11], 19.2 µM (inactive); in assay [12], 13 µM (inactive); in assay [13] it was 19.8 µM (inactive). Further, the GI50 in assay [14] was 4.05 µM (inactive); in assay [15] it was 15.4 µM (inactive); in assay [16], 13.1 µM (inactive); in [17], 16.3 µM (inactive); in assay [18], 15.6 µM (inactive); in [19] it was 41.9 µM (inactive).
